Assay results taken from US9290451B2 (Hoffmann-La Roche Inc., priority 2011, dated 2016).

Tests used:
human CB1 receptors = human CB1 receptors (Homo sapiens (Human), UniProt P21554); experiment: cAMP assay, CHO cells expressing human CB1 receptors; format: cell-based; settings: CHO cells expressing human CB1, cAMP; read-out: human CB1 EC50
Procedure, shortened: (§1)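 Read-out is TR-FRET (excitation 355 nm, emission 730/645 nm) after cell lysis, with cAMP content taken from a standard curve and EC50 calculated. Cells were pretreated with 1 mM IBMX in Krebs Ringer bicarbonate buffer, then incubated with compounds for 30 min at 30 °C.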

human CB2 receptors = human CB2 receptors (Homo sapiens (Human), UniProt P34972); experiment: cAMP assay, CHO cells expressing human CB2 receptors; format: cell-based; settings: CHO cells expressing human CB2, cAMP; read-out: human CB2 EC50
Procedure, shortened: as §1

human CB1 receptors, sequence (P21554 whole entry): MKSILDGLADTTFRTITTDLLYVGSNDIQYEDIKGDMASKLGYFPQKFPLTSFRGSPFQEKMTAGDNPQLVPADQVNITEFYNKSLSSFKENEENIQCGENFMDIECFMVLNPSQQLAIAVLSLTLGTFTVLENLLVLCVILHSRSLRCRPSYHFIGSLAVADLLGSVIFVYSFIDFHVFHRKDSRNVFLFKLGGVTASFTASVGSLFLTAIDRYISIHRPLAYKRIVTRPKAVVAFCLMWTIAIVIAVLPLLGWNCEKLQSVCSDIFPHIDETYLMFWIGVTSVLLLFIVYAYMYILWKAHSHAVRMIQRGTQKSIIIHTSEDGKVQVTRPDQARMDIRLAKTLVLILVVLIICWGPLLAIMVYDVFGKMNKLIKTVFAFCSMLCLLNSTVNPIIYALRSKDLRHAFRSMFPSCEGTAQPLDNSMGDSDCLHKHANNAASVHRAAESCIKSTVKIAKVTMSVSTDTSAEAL
human CB2 receptors, sequence (P34972 whole entry): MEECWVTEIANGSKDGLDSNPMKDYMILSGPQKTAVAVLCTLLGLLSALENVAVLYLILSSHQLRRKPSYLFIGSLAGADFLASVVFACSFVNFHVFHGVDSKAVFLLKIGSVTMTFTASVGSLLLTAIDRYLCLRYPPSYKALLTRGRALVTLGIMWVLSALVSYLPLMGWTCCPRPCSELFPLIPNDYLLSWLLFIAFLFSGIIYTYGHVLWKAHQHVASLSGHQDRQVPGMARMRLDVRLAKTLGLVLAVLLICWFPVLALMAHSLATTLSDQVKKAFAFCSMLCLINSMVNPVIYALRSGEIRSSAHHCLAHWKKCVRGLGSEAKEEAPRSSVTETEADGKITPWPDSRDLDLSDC

SMILES	EC50 (human CB1 receptors) [nM]	EC50 (human CB2 receptors) [nM]
CCOC(=O)C(CC)(CC)NC(=O)c1ccc(C(F)(F)F)c(OCC2CC2)n1 [Example 312, 2-[(6-Cyclopropylmethoxy-5-trifluoromethyl-pyridine-2-carbonyl)-amino]-2-ethyl-butyric acid ethyl ester]	> 10000	2.4
CCC(CC)(NC(=O)c1ccc(C2CC2)c(O[C@H](CCO)C(F)(F)F)n1)C(=O)NC [Example 313, 5-Cyclopropyl-6-((R)-3-hydroxy-1-trifluoromethyl-propoxy)-pyridine-2-carboxylic acid (1-ethyl-1-methylcarbamoyl-propyl)-amide]	> 10000	981
CCC(CC)(NC(=O)c1ccc(C2CC2)c(OCC[C@@H](O)C(F)(F)F)n1)C(=O)NC [Example 314, 5-Cyclopropyl-6-((R)-4,4,4-trifluoro-3-hydroxy-butoxy)-pyridine-2-carboxylic acid (1-ethyl-1-methylcarbamoyl-propyl)-amide]	1260	16.1
CC(C)CC(NC(=O)c1ccc(N2CC(F)(F)C2)c(OCC2CC2)n1)c1ccccn1 (stereo not drawn) [Example 315, 6-Cyclopropylmethoxy-5-(3,3-difluoro-azetidin-1-yl)-pyridine-2-carboxylic acid (3-methyl-1-pyridin-2-yl-butyl)-amide]	2320	191
CCC(CC)(NC(=O)c1ccc(C(F)(F)F)c(OCC2CC2)n1)C(=O)N1CC(F)(F)C1 [Example 316, 6-Cyclopropylmethoxy-5-trifluoromethyl-pyridine-2-carboxylic acid [1-(3,3-difluoro-azetidine-1-carbonyl)-1-ethyl-propyl]-amide]	> 10000	3.1
CC(C)C[C@H](NC(=O)c1cccc(C(O)c2ccc(F)cc2)n1)C(N)=O (stereo partly drawn) [Example 317, 6-[(4-Fluoro-phenyl)-hydroxy-methyl]-pyridine-2-carboxylic acid ((S)-1-carbamoyl-3-methyl-butyl)-amide]	> 10000	24.2
Cc1nc([C@H](CC(C)C)NC(=O)c2cccc(C(O)c3ccc(F)cc3)n2)no1 (stereo partly drawn) [Example 318, 6-[(4-Fluoro-phenyl)-hydroxy-methyl]-pyridine-2-carboxylic acid [(S)-3-methyl-1-(5-methyl-[1,2,4]oxadiazol-3-yl)-butyl]-amide]	> 10000	25.1
CCC(CC)(NC(=O)c1ccc(C2CC2)c(O[C@@H](CCO)C(F)(F)F)n1)C(=O)NC [Example 319, 5-Cyclopropyl-6-((S)-3-hydroxy-1-trifluoromethyl-propoxy)-pyridine-2-carboxylic acid (1-ethyl-1-methylcarbamoyl-propyl)-amide]	> 10000	344
CCC(CC)(NC(=O)c1ccc(C2CC2)c(OCC[C@H](O)C(F)(F)F)n1)C(=O)NC [Example 320, 5-Cyclopropyl-6-((S)-4,4,4-trifluoro-3-hydroxy-butoxy)-pyridine-2-carboxylic acid (1-ethyl-1-methylcarbamoyl-propyl)-amide]	323	4.4
CC(C)CC(NC(=O)c1ccc(N2CC(F)(F)C2)c(OCC2CC2)n1)c1cccnn1 (stereo not drawn) [Example 321, 6-Cyclopropylmethoxy-5-(3,3-difluoro-azetidin-1-yl)-pyridine-2-carboxylic acid (3-methyl-1-pyridazin-3-yl-butyl)-amide]	> 10000	18.9
Cc1nc(C(C)(C)NC(=O)c2ccc(N3CC(=O)C3)c(OCC3CC3)n2)no1 [Example 322, 6-Cyclopropylmethoxy-5-(3-oxo-azetidin-1-yl)-pyridine-2-carboxylic acid [1-methyl-1-(5-methyl-[1,2,4]oxadiazol-3-yl)-ethyl]-amide]	> 10000	424
Cc1nc([C@@](C)(NC(=O)c2ccc(C3CC3)c(OCC3CC3)n2)C2CC2)no1 [Example 323, 5-Cyclopropyl-6-cyclopropylmethoxy-pyridine-2-carboxylic acid [(+)-1-cyclopropyl-1-(5-methyl-[1,2,4]oxadiazol-3-yl)-ethyl]-amide]	181	0.9
Cc1nc([C@](C)(NC(=O)c2ccc(C3CC3)c(OCC3CC3)n2)C2CC2)no1 [Example 324]	> 10000	4.1
CC(C)CC(NC(=O)c1ccc(N2CC(F)(F)C2)c(OCC2CC2)n1)c1cccnc1 (stereo not drawn) [Example 325, 6-Cyclopropylmethoxy-5-(3,3-difluoro-azetidin-1-yl)-pyridine-2-carboxylic acid (3-methyl-1-pyridin-3-yl-butyl)-amide]	> 10000	17.5
NC(=O)[C@H](CC1CC1)NC(=O)c1ccc(C2CC2)c(Cc2ccc(F)cc2)n1 [Example 326, 5-Cyclopropyl-6-(4-fluoro-benzyl)-pyridine-2-carboxylic acid ((S)-1-carbamoyl-2-cyclopropyl-ethyl)-amide]	59	0.2
Cc1nc([C@H](CC2CC2)NC(=O)c2ccc(C3CC3)c(Cc3ccc(F)cc3)n2)no1 [Example 327, 5-Cyclopropyl-6-(4-fluoro-benzyl)-pyridine-2-carboxylic acid [(S)-2-cyclopropyl-1-(5-methyl-[1,2,4]oxadiazol-3-yl)-ethyl]-amide]	13.6	1.1
NC(=O)[C@@H](NC(=O)c1ccc(C2CC2)c(OCC2CC2)n1)c1ccc(F)cc1 [Example 328, 5-Cyclopropyl-6-cyclopropylmethoxy-pyridine-2-carboxylic acid [(S)-carbamoyl-(4-fluoro-phenyl)-methyl]-amide]	> 10000	3.9
NC(=O)[C@@H](NC(=O)c1ccc(C2CC2)c(OCC2CC2)n1)c1ccc(Cl)cc1 [Example 329, 5-Cyclopropyl-6-cyclopropylmethoxy-pyridine-2-carboxylic acid [(S)-carbamoyl-(4-chloro-phenyl)-methyl]-amide]	> 10000	21.1
CC(C)C[C@H](NC(=O)c1cccc(S(=O)(=O)CC(C)C)n1)C(N)=O [Example 330, 6-(2-Methyl-propane-1-sulfonyl)-pyridine-2-carboxylic acid ((S)-1-carbamoyl-3-methyl-butyl)-amide]	> 10000	869
CC(C)CSc1cccc(C(=O)N[C@@H](CC(C)C)C(N)=O)n1 [Example 331, 6-Isobutylsulfanyl-pyridine-2-carboxylic acid ((S)-1-carbamoyl-3-methyl-butyl)-amide]	> 10000	16.6
O=C(N[C@@H](c1ccccn1)C(F)(F)F)c1ccc(C2CC2)c(Cc2ccc(F)cc2)n1 [Example 332, 5-Cyclopropyl-6-(4-fluoro-benzyl)-pyridine-2-carboxylic acid ((S)-2,2,2-trifluoro-1-pyridin-2-yl-ethyl)-amide]	91	4.5
CCC(CC)(NC(=O)c1ccc(C2CC2)c(Cc2ccc(F)cc2)n1)C(=O)O [Example 333, 2-{[5-Cyclopropyl-6-(4-fluoro-benzyl)-pyridine-2-carbonyl]-amino}-2-ethyl-butyric acid]	81	8
Cc1nc(C(C)(C)NC(=O)c2ccc(N3CCC(=O)C3)c(OCC3CC3)n2)no1 [Example 334, 6-Cyclopropylmethoxy-5-(3-oxo-pyrrolidin-1-yl)-pyridine-2-carboxylic acid [1-methyl-1-(5-methyl-[1,2,4]oxadiazol-3-yl)-ethyl]-amide]	> 10000	108
Cc1nc([C@H](CC(C)C)NC(=O)c2cccc(S(=O)(=O)CC(C)C)n2)no1 [Example 335, 6-(2-Methyl-propane-1-sulfonyl)-pyridine-2-carboxylic acid [(S)-3-methyl-1-(5-methyl-[1,2,4]oxadiazol-3-yl)-butyl]-amide]	> 10000	962
CC(C)C[C@H](NC(=O)c1ccc(C2CC2)c(Cc2ccc(F)cc2)n1)C(=O)O [Example 336, (S)-2-{[5-Cyclopropyl-6-(4-fluoro-benzyl)-pyridine-2-carbonyl]-amino}-4-methyl-pentanoic acid]	> 10000	239
CCC(CC)(NC(=O)c1ccc(C2CC2)c(OCC2CCOCC2)n1)C(=O)O [Example 337, 2-{[5-Cyclopropyl-6-(tetrahydro-pyran-4-ylmethoxy)-pyridine-2-carbonyl]-amino}-2-ethyl-butyric acid]	475	34.5
Cn1c(C(C)(C)NC(=O)c2ccc(C3CC3)c(OCC3CC3)n2)noc1=O [Example 338, 5-Cyclopropyl-6-cyclopropylmethoxy-pyridine-2-carboxylic acid [1-methyl-1-(4-methyl-5-oxo-4,5-dihydro-[1,2,4]oxadiazol-3-yl)-ethyl]-amide]	> 10000	534
CC(C)CC(NC(=O)c1ccc(N2CC(F)(F)C2)c(OCC2CC2)n1)c1ncccn1 (stereo not drawn) [Example 339, 6-Cyclopropylmethoxy-5-(3,3-difluoro-azetidin-1-yl)-pyridine-2-carboxylic acid (3-methyl-1-pyrimidin-2-yl-butyl)-amide]	> 10000	64.9
Cc1nc(C(C)(NC(=O)c2ccc(N3CC(F)(F)C3)c(OCC3CC3)n2)C2CC2)no1 (stereo not drawn) [Example 340, 6-Cyclopropylmethoxy-5-(3,3-difluoro-azetidin-1-yl)-pyridine-2-carboxylic acid [1-cyclopropyl-1-(5-methyl-[1,2,4]oxadiazol-3-yl)-ethyl]-amide]	> 10000	5.7
Cc1nc(C(C)(CC2CC2)NC(=O)c2ccc(N3CC(F)(F)C3)c(OCC3CC3)n2)no1 (stereo not drawn) [Example 341, 6-Cyclopropylmethoxy-5-(3,3-difluoro-azetidin-1-yl)-pyridine-2-carboxylic acid [2-cyclopropyl-1-methyl-1-(5-methyl-[1,2,4]oxadiazol-3-yl)-ethyl]-amide]	> 10000	8.4
